Data taken from PubChem BioAssay (NCI).
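All cell lines were grown in 96-well plates and treated with compound for 48 hours. The concentration for full growth arrest is given as TGI.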

Assays:
Assay in all cases: NCI tumour cell line growth inhibition, 48 h
786-0 renal = test system: 786-0 renal
A549 NSCLC = test system: A549 NSCLC
BT-549 breast = test system: BT-549 breast
CAKI-1 renal = test system: CAKI-1 renal
COLO 205 colon = test system: COLO 205 colon
DU-145 prostate = test system: DU-145 prostate
HCT-15 colon = test system: HCT-15 colon
HT29 colon = test system: HT29 colon
LOX IMVI melanoma = test system: LOX IMVI melanoma
MCF7 breast = test system: MCF7 breast
MDA-N = test system: MDA-N
MOLT-4 leukemia = test system: MOLT-4 leukemia
NCI/ADR-RES ovarian = test system: NCI/ADR-RES ovarian
OVCAR-5 ovarian = test system: OVCAR-5 ovarian
SF-539 CNS = test system: SF-539 CNS
SK-MEL-2 melanoma = test system: SK-MEL-2 melanoma
SK-MEL-5 melanoma = test system: SK-MEL-5 melanoma
TK-10 renal = test system: TK-10 renal
MDA-MB-435 = test system: MDA-MB-435
SR leukemia = test system: SR leukemia

Compound	TGI (786-0 renal)	TGI (A549 NSCLC)	TGI (BT-549 breast)	TGI (CAKI-1 renal)	TGI (COLO 205 colon)	TGI (DU-145 prostate)	TGI (HCT-15 colon)	TGI (HT29 colon)	TGI (LOX IMVI melanoma)	TGI (MCF7 breast)	TGI (MDA-N)	TGI (MOLT-4 leukemia)	TGI (NCI/ADR-RES ovarian)	TGI (OVCAR-5 ovarian)	TGI (SF-539 CNS)	TGI (SK-MEL-2 melanoma)	TGI (SK-MEL-5 melanoma)	TGI (TK-10 renal)	TGI (MDA-MB-435)	TGI (SR leukemia)
O=C(O/C=C\OC1CCCC1(c1ccccc1)c1ccccc1)c1ccccc1 (stereo not drawn)	14 µM	> 68.5 µM	4.58 µM	> 63.6 µM	31.5 µM	13.6 µM	5.72 µM	13.8 µM	3.22 µM	6.67 µM	9.32 µM	> 31 µM	8.99 µM	31.1 µM	13.5 µM	15 µM	23.8 µM	17.9 µM	–	–
O=C1c2cccc3cccc(c23)C2NCCCN12 (stereo not drawn)	> 100 µM	> 100 µM	> 100 µM	> 100 µM	> 100 µM	> 100 µM	> 100 µM	> 100 µM	> 100 µM	> 100 µM	> 100 µM	> 100 µM	> 100 µM	> 100 µM	–	–	> 100 µM	> 100 µM	> 100 µM	> 100 µM
CCC(=O)O[C@H]1CC[C@H]2[C@@H]3CCC4=C/C(=N/OC(=O)c5cccc6c(=O)c7ccccc7[nH]c56)CC[C@]4(C)[C@H]3CC[C@]12C	36.5 µM	> 100 µM	> 100 µM	–	> 100 µM	–	61.9 µM	> 100 µM	51.4 µM	48.2 µM	> 100 µM	53.4 µM	> 100 µM	> 100 µM	39.3 µM	75.5 µM	> 100 µM	> 100 µM	99.6 µM	> 100 µM
CN(C)CCNC(=O)c1ccc2nc3c(nc2c1)C(=O)c1ccccc1-3	> 100 µM	> 100 µM	41.3 µM	> 100 µM	> 100 µM	> 100 µM	> 100 µM	81.5 µM	73.4 µM	> 100 µM	33.6 µM	52.6 µM	–	> 100 µM	> 100 µM	–	32.1 µM	> 100 µM	48.2 µM	54.7 µM
Cc1cc(C)c2c(c1)C/C(=C\c1ccccc1C(=O)O)C2=O	> 100 µM	> 100 µM	97.8 µM	> 100 µM	–	> 100 µM	> 100 µM	> 100 µM	> 100 µM	> 100 µM	> 100 µM	> 100 µM	–	> 100 µM	> 100 µM	–	> 100 µM	> 100 µM	–	> 100 µM
COc1ccc2[nH]c3c(c2c1)CC(=S)N1CCCC(CC3=O)C1 (stereo not drawn)	> 100 µM	> 100 µM	> 100 µM	> 100 µM	> 100 µM	> 100 µM	> 100 µM	> 100 µM	–	> 100 µM	> 100 µM	–	> 100 µM	> 100 µM	–	81.2 µM	> 100 µM	> 100 µM	> 100 µM	–
CCOC(=O)CO/N=C1/C(c2c(O)[nH]c3ccccc23)=Nc2ccccc21	> 100 µM	> 100 µM	> 100 µM	> 100 µM	> 100 µM	> 100 µM	> 100 µM	> 100 µM	> 100 µM	> 100 µM	> 100 µM	78.5 µM	> 100 µM	> 100 µM	> 100 µM	> 100 µM	> 100 µM	> 100 µM	> 100 µM	–
COc1ccc(-c2csc(Cc3nc4ccccc4c(=O)n3-c3ccc(Cl)cc3)n2)cc1	> 100 µM	> 100 µM	> 100 µM	> 100 µM	> 100 µM	> 100 µM	97.6 µM	> 100 µM	> 100 µM	> 100 µM	59 µM	67.4 µM	> 100 µM	62.1 µM	–	35.3 µM	41.1 µM	> 100 µM	> 100 µM	–
Fc1ccc(C(=C2CCN(CCc3ccc4[nH]c(=S)[nH]c4c3)CC2)c2ccc(F)cc2)cc1	3.61 µM	> 40.5 µM	14.2 µM	28.6 µM	3.31 µM	8.91 µM	11.4 µM	3.82 µM	39.9 µM	5.94 µM	4.81 µM	> 27.8 µM	37.3 µM	23 µM	7.74 µM	7.95 µM	5.74 µM	4.74 µM	–	–
CC1(C)CC(=O)C(C=NC(=O)c2ccncc2)=C(O)C1	> 100 µM	> 100 µM	> 100 µM	> 100 µM	> 100 µM	> 100 µM	> 100 µM	> 100 µM	> 100 µM	> 100 µM	> 100 µM	> 100 µM	> 100 µM	> 100 µM	> 100 µM	> 100 µM	> 100 µM	> 100 µM	> 100 µM	–
